Measured values: ChEMBL document CHEMBL5291721, “A preclinical secondary pharmacology resource illuminates target-adverse drug reaction associations of marketed drugs” (Nat Commun, 2023)

Columns and labels:
[1] = target: Sodium-dependent serotonin transporter (Homo sapiens, UniProt P31645)
[2] = target: Vascular endothelial growth factor receptor 2 (Homo sapiens, UniProt P35968); assay type: functional
[3] = target: T1, Muscarinic acetylcholine receptor M1 (Homo sapiens, UniProt P11229); assay type: functional, cell-based
T1 sequence (P11229 whole entry): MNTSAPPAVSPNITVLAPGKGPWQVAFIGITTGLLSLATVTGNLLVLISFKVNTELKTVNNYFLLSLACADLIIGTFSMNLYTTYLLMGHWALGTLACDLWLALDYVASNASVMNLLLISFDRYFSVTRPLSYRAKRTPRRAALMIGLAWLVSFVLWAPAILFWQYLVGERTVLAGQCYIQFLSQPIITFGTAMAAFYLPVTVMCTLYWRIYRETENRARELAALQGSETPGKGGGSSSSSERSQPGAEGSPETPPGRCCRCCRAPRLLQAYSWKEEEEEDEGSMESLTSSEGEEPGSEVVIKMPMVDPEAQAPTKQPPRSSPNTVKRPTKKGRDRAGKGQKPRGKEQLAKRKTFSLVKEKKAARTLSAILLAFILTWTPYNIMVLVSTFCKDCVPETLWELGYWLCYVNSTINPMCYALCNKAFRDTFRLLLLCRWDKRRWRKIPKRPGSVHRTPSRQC

[4] = target: Sodium-dependent noradrenaline transporter (Homo sapiens, UniProt P23975)
Chain of Sodium-dependent noradrenaline transporter (P23975 whole entry): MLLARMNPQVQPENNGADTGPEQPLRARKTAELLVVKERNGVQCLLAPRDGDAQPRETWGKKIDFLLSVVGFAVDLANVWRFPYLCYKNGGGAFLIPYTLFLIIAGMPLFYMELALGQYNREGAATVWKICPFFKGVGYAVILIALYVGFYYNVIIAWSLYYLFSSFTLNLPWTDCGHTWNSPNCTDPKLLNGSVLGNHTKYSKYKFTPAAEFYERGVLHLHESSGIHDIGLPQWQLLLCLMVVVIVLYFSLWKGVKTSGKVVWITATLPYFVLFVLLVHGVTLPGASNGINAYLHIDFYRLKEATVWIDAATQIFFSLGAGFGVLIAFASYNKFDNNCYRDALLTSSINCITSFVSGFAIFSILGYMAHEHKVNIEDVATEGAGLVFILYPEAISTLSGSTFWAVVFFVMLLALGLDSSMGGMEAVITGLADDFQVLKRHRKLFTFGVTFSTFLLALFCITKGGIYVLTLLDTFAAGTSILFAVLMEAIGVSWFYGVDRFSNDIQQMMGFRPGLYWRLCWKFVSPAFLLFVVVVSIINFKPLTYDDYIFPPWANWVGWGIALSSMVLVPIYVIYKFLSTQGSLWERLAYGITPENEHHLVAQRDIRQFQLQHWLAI

Thromboxane A2 receptor = target: T2, Thromboxane A2 receptor (Homo sapiens, UniProt P21731); assay type: functional, cell-based
T2 sequence (P21731 whole entry): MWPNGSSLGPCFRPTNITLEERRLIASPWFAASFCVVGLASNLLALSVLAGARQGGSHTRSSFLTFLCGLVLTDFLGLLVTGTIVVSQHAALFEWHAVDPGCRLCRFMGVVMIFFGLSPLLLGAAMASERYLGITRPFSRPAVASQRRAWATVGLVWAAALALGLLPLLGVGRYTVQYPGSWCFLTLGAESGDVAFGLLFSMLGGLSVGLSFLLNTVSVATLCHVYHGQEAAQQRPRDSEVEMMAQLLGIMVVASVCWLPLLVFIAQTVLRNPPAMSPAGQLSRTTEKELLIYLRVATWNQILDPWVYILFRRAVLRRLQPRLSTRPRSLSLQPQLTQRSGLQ

Mu-type opioid receptor = Mu-type opioid receptor (Homo sapiens, UniProt P35372)
Chain of Mu-type opioid receptor (P35372 whole entry): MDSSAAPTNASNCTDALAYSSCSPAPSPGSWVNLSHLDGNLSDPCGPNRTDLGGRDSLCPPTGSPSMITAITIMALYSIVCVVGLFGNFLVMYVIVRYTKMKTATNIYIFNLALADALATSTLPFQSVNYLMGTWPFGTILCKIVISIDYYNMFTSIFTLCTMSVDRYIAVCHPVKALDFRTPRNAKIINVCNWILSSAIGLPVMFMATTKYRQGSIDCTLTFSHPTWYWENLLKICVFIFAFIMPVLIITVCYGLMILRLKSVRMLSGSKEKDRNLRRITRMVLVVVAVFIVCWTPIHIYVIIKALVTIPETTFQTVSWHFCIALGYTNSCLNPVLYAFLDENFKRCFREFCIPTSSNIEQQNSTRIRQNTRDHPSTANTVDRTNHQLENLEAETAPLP

[5] = target: Prostaglandin G/H synthase 1 (Homo sapiens, UniProt P23219); assay type: functional
Chain of Prostaglandin G/H synthase 1 (P23219 whole entry): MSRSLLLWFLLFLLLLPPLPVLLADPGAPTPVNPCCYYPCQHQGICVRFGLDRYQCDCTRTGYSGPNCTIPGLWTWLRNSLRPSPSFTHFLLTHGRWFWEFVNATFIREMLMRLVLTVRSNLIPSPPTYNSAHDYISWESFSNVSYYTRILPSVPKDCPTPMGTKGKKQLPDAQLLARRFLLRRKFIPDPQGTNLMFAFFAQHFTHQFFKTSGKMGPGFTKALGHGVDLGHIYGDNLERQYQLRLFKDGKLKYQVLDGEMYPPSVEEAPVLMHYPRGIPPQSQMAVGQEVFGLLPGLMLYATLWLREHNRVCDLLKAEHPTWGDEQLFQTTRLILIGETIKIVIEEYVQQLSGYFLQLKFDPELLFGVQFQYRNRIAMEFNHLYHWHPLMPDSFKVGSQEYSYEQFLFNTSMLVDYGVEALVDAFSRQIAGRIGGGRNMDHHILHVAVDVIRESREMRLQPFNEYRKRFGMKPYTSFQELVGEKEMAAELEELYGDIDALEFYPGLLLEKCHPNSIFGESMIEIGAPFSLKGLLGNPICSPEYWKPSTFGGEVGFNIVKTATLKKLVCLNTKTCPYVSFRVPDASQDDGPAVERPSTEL

[6] = target: T1, Muscarinic acetylcholine receptor M1; assay type: functional, cell-based; remark: listed apart in the source
[7] = target: T3, Alpha-2A adrenergic receptor (Homo sapiens, UniProt P08913)
T3 sequence (P08913 whole entry): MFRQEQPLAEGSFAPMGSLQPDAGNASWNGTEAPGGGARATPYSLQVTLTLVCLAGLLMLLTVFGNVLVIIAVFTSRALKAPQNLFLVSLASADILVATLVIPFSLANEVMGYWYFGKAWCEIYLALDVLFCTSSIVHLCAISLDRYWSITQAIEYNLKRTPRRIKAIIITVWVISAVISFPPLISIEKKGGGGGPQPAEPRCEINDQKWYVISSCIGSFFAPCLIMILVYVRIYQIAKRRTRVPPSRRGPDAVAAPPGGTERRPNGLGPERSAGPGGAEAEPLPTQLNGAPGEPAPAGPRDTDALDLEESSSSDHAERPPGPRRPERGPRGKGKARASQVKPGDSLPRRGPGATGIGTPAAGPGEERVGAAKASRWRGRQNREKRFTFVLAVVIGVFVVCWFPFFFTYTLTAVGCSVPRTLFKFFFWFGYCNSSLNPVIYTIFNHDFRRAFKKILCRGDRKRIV

[8] = target: T4, Muscarinic acetylcholine receptor M2 (Homo sapiens, UniProt P08172)
T4 sequence (P08172 whole entry): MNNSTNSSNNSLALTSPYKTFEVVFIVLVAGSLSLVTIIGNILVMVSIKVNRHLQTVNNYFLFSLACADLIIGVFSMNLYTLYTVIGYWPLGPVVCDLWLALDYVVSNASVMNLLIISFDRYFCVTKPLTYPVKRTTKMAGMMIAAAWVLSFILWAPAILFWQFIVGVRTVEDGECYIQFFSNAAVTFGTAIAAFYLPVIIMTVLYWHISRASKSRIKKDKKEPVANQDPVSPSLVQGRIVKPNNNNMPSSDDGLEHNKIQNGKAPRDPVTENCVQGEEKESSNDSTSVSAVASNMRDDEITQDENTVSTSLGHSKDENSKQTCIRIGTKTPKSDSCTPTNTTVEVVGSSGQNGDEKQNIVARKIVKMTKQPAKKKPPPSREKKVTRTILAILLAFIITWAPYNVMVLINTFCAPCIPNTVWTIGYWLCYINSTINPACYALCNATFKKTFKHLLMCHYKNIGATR

[9] = target: 3',5'-cyclic-AMP phosphodiesterase 4A (Homo sapiens, UniProt P27815); assay type: functional
Chain of 3',5'-cyclic-AMP phosphodiesterase 4A (P27815 whole entry): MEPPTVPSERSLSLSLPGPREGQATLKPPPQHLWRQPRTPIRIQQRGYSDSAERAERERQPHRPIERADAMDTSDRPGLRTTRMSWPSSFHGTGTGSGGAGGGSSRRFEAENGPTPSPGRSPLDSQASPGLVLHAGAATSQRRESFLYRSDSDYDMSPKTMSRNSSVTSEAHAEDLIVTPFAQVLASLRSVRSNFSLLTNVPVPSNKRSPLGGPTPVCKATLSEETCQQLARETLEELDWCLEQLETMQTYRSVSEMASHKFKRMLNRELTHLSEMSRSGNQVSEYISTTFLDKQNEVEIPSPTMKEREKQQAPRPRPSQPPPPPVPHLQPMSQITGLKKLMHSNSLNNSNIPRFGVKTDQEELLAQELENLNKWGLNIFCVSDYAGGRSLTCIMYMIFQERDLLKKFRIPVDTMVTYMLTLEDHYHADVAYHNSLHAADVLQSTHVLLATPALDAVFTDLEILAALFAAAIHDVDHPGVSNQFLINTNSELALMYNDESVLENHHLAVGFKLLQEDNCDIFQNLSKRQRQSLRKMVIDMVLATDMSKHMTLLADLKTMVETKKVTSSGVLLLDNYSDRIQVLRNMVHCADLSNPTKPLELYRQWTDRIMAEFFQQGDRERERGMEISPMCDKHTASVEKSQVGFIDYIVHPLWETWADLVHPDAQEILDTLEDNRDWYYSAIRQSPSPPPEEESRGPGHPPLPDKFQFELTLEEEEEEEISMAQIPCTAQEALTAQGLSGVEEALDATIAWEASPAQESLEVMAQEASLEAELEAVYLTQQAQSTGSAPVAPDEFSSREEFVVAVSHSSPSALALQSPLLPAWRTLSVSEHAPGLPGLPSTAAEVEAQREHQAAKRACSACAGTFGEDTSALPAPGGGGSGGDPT

[10] = target: T5, Alpha-1A adrenergic receptor (Homo sapiens, UniProt P35348); assay type: functional, cell-based
T5 sequence (P35348 whole entry): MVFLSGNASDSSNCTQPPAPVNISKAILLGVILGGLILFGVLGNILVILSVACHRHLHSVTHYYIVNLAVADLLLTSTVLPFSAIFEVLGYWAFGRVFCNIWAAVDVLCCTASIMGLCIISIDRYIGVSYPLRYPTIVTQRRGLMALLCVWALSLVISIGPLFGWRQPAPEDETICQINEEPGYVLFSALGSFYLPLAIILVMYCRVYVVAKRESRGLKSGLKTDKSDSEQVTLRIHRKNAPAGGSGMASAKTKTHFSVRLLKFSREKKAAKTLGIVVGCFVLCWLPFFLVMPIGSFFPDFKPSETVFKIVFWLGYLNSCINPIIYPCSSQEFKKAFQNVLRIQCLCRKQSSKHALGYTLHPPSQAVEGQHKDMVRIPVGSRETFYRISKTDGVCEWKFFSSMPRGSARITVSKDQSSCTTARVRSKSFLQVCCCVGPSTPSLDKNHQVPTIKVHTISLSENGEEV
Note: assay procedure not described here.

Chain of Vascular endothelial growth factor receptor 2 (P35968 whole entry): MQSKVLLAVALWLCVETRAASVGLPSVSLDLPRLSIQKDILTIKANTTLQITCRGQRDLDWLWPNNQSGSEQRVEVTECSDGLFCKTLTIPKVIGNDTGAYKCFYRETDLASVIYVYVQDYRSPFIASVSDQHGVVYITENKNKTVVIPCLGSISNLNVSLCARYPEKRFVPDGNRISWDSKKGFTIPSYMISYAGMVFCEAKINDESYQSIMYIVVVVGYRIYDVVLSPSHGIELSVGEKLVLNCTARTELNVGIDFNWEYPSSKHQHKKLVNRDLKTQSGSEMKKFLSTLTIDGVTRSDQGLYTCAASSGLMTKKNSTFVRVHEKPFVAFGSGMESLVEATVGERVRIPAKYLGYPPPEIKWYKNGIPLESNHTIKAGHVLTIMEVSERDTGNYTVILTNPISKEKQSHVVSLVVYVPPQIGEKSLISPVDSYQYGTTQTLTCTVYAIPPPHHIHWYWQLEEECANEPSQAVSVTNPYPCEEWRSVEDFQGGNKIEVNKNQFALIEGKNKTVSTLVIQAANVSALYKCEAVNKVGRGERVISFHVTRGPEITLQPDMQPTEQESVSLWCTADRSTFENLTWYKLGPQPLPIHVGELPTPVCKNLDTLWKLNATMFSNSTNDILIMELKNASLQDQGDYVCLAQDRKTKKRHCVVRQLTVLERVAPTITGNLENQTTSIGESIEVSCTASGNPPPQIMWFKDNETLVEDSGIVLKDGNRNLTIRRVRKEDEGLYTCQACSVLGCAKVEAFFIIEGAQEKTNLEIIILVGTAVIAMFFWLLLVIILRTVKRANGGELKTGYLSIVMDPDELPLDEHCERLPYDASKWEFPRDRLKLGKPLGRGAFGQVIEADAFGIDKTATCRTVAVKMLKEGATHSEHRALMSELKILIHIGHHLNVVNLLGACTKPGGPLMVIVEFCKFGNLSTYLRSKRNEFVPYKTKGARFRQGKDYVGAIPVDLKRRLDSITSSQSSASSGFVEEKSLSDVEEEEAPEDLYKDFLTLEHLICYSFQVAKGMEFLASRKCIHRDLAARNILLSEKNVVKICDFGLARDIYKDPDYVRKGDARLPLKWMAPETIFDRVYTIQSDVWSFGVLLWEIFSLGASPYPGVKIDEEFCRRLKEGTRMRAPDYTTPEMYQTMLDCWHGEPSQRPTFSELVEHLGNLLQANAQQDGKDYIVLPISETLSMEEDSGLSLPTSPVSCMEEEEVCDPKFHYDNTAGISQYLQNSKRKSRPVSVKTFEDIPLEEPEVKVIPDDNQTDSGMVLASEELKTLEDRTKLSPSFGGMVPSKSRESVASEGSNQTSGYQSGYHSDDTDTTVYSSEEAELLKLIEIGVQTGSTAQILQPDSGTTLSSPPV
Chain of Sodium-dependent serotonin transporter (P31645 whole entry): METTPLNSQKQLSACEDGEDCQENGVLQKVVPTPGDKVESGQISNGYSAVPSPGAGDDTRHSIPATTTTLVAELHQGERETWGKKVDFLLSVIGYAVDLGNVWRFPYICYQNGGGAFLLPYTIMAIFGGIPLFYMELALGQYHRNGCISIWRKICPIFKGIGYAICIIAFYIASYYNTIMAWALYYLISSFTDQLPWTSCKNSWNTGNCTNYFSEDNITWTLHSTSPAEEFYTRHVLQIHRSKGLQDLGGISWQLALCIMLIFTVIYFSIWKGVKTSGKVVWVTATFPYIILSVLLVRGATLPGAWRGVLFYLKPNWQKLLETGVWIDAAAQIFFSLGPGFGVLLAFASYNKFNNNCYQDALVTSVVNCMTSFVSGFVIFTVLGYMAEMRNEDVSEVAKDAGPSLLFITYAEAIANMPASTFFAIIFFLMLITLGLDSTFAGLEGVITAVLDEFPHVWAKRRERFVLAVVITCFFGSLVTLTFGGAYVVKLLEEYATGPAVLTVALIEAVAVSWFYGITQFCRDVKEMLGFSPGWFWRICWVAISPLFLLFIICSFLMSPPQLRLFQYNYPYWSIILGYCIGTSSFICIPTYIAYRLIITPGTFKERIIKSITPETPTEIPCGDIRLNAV

Structure (SMILES)	AC50 [1]	AC50 [2]	AC50 [3]	AC50 [4]	AC50 (Thromboxane A2 receptor)	AC50 (Mu-type opioid receptor)	AC50 [5]	AC50 [6]	AC50 [7]	AC50 [8]	AC50 [9]	AC50 [10]
C[S+](CC[C@H](N)C(=O)[O-])C[C@H]1O[C@@H](n2cnc3c(N)ncnc32)[C@H](O)[C@@H]1O (stereo partly drawn) [ADEMETIONINE]	> 30 µM	19.4 µM	> 30 µM	> 30 µM	> 30 µM	> 30 µM	> 30 µM	> 30 µM	> 30 µM	> 30 µM	> 30 µM	> 30 µM
N[C@H]1C(O)O[C@H](CO)[C@@H](O)[C@@H]1O (stereo partly drawn) [GLUCOSAMINE]	> 30 µM	> 30 µM	> 30 µM	> 30 µM	> 30 µM	> 30 µM	> 30 µM	> 30 µM	> 30 µM	> 30 µM	> 30 µM	> 30 µM
COc1ccc2c(c1)N(C[C@H](C)CN(C)C)c1ccccc1S2 [LEVOMEPROMAZINE]	> 30 µM	> 30 µM	0.331 µM	> 30 µM	> 30 µM	13.5 µM	11.3 µM	> 30 µM	–	1.68 µM	> 30 µM	–
CC(C)(C)C(=O)C(Oc1ccc(Cl)cc1)n1ccnc1 (stereo not drawn) [CLIMBAZOLE]	29.7 µM	> 30 µM	10.2 µM	20.8 µM	> 30 µM	> 30 µM	> 30 µM	> 30 µM	> 30 µM	> 30 µM	> 30 µM	25.6 µM
Cc1ccccc1OCC(O)CO (stereo not drawn) [MEPHENESIN]	> 30 µM	> 30 µM	> 30 µM	> 30 µM	> 30 µM	> 30 µM	> 30 µM	> 30 µM	> 30 µM	> 30 µM	> 30 µM	> 30 µM
CC(C)C[C@H]1C(=O)N2CCC[C@H]2[C@]2(O)O[C@](NC(=O)[C@@H]3C[C@@H]4c5cccc6[nH]cc(c56)C[C@H]4N(C)C3)(C(C)C)C(=O)N12 [DIHYDROERGOCRYPTINE]	> 30 µM	> 30 µM	> 30 µM	> 30 µM	> 30 µM	10.3 µM	18.4 µM	> 30 µM	0.847 µM	> 30 µM	> 30 µM	–
O=C(Oc1ccc2c(c1)CCCN2C(=O)C(Cl)Cl)c1ccco1 [QUINFAMIDE]	> 30 µM	–	15.4 µM	> 30 µM	> 30 µM	> 30 µM	> 30 µM	> 30 µM	> 30 µM	> 30 µM	> 30 µM	24.6 µM
CCC(CC)(CC(=O)Nc1cccc(/C=C/c2nc(C3CCC3)cs2)c1)C(=O)O	> 30 µM	–	> 3 µM	> 30 µM	> 10 µM	> 30 µM	26.2 µM	> 10 µM	> 30 µM	> 30 µM	> 30 µM	> 3 µM
O=[N+]([O-])O[C@@H]1CO[C@H]2[C@@H]1OC[C@@H]2O [ISOSORBIDE MONONITRATE]	> 30 µM	–	> 30 µM	> 30 µM	> 30 µM	> 30 µM	> 30 µM	> 30 µM	> 30 µM	> 30 µM	> 30 µM	> 30 µM
O=[N+]([O-])c1cn2c(n1)OC[C@@H](OCc1ccc(OC(F)(F)F)cc1)C2 [PRETOMANID]	> 30 µM	–	10.6 µM	> 30 µM	> 30 µM	> 30 µM	> 30 µM	> 30 µM	> 30 µM	> 30 µM	> 30 µM	> 10 µM
COC1=C(OC)C(=O)C(C/C=C(\C)CC/C=C(\C)CC/C=C(\C)CC/C=C(\C)CC/C=C(\C)CC/C=C(\C)CC/C=C(\C)CC/C=C(\C)CC/C=C(\C)CCC=C(C)C)=C(C)C1=O [UBIDECARENONE]	> 30 µM	–	> 30 µM	> 30 µM	> 30 µM	> 30 µM	> 30 µM	> 30 µM	> 30 µM	> 30 µM	> 30 µM	> 30 µM
OC(c1ccccc1)(c1ccccc1)C12CC[N+](CCOCc3ccccc3)(CC1)CC2	0.302 µM	–	0.0053 µM	2.73 µM	> 30 µM	1.07 µM	> 30 µM	> 30 µM	> 30 µM	0.0044 µM	15.6 µM	> 30 µM
CN1CCN(C2=Nc3ccccc3Sc3ccc(Cl)cc32)CC1 [CLOTHIAPINE]	4.87 µM	–	0.42 µM	0.76 µM	> 10 µM	1.1 µM	> 30 µM	> 10 µM	3.47 µM	0.52 µM	> 30 µM	0.01 µM
C=CCN1C[C@H](C(=O)N(CCCN(C)C)C(=O)NCC)C[C@@H]2c3cccc4[nH]cc(c34)C[C@H]21 [CABERGOLINE]	> 30 µM	> 30 µM	> 30 µM	29.6 µM	> 30 µM	> 30 µM	> 30 µM	> 30 µM	–	> 30 µM	> 30 µM	–
CCCCS(=O)(=O)N[C@@H](Cc1ccc(OCCCCC2CCNCC2)cc1)C(=O)O [TIROFIBAN]	9.96 µM	–	> 10 µM	> 30 µM	> 30 µM	> 30 µM	> 30 µM	> 30 µM	> 30 µM	20.4 µM	> 30 µM	> 10 µM
CCCCCNC(=N)N/N=C/c1c[nH]c2ccc(OC)cc12 [TEGASEROD]	2.57 µM	–	> 3 µM	0.26 µM	> 3 µM	2.32 µM	20.4 µM	> 3 µM	0.92 µM	6.59 µM	> 30 µM	1.16 µM
